Experimental data: patent US20230398130A1, “METHODS AND COMPOSITIONS FOR DIFFERENTIATING STEM CELLS” (Massachusetts Institute of Technology, priority 2020, published 2023)

What was measured:
ISC-enriched organoids [1] = assay: Primary screen, 384-well 2.5-D organoid differentiation (ENR+CD, 6 days): basal lysozyme secretion (LYZ.NS); type: cell-based, murine; conditions: for Dose.FC.LYZ.NS: FC vs plate median; for Z.LYZ.NS: standard z score of FC; for Dose.FC.LYZ.NS (log 2 fold change, basal lysozyme secretion): vs plate median
Excerpt: (§1) High-throughput screening.

ISC-enriched organoids [2] = assay: Primary screen, 384-well 2.5-D organoid differentiation (ENR+CD, 6 days): carbachol-induced lysozyme secretion (LYZ.S); type: cell-based, murine; conditions: for Dose.FC.LYZ.S: FC vs plate median; for Dose.FC.LYZ.S (log 2 fold change, carbachol-induced lysozyme secretion): vs plate median
Excerpt: as §1

ISC-enriched organoids [3] = assay: Primary screen, 384-well 2.5-D organoid differentiation (ENR+CD, 6 days, Target Selective Inhibitor Library, vs whole-plate median): ATP (CellTiter-Glo 3D, CTG); conditions: for Dose.FC.CTG: FC vs plate median; for Z.CTG: standard z score of FC; for Dose.FC.CTG (log 2 fold change, ATP): vs plate median
[4] = primary screen, dose 0.08 uM, ENR+CD 6 days
[5] = primary screen, dose 0.40 uM, ENR+CD 6 days
[6] = primary screen, dose 2.00 uM, ENR+CD 6 days
[7] = primary screen, dose 10.00 uM, ENR+CD 6 days

## CCCCCCCCc1ccc(CCC(N)(CO)CO)cc1.Cl [Fingolimod (FTY720) HCl]
ISC-enriched organoids [1]; Dose 0.08 uM, ENR+CD, 6 days
  Dose.FC.LYZ.NS: −0.054 log 2 fold change
ISC-enriched organoids [1]; Dose 0.08 uM
  Z.LYZ.NS: −0.471
ISC-enriched organoids [1]; Dose 0.40 uM, ENR+CD, 6 days
  Dose.FC.LYZ.NS: 0.071 log 2 fold change
ISC-enriched organoids [1]; Dose 0.40 uM
  Z.LYZ.NS: 0.616
ISC-enriched organoids [1]; Dose 2.00 uM, ENR+CD, 6 days
  Dose.FC.LYZ.NS: 0.021 log 2 fold change
ISC-enriched organoids [1]; Dose 2.00 uM
  Z.LYZ.NS: 0.186
ISC-enriched organoids [1]; Dose 10.00 uM, ENR+CD, 6 days
  Dose.FC.LYZ.NS: −0.225 log 2 fold change
ISC-enriched organoids [1]; Dose 10.00 uM
  Z.LYZ.NS: −1.961
ISC-enriched organoids [2]; Dose 0.08 uM, ENR+CD, 6 days
  Dose.FC.LYZ.S: −0.046 log 2 fold change
ISC-enriched organoids [2]; Dose 0.40 uM, ENR+CD, 6 days
  Dose.FC.LYZ.S: 0.077 log 2 fold change
ISC-enriched organoids [2]; Dose 2.00 uM, ENR+CD, 6 days
  Dose.FC.LYZ.S: −0.060 log 2 fold change
ISC-enriched organoids [2]; Dose 10.00 uM, ENR+CD, 6 days
  Dose.FC.LYZ.S: −0.362 log 2 fold change
ISC-enriched organoids [3]; Dose 0.08 uM, ENR+CD, 6 days
  Dose.FC.CTG: −0.080 log 2 fold change
ISC-enriched organoids [3]; Dose 0.08 uM
  Z.CTG: −0.191
ISC-enriched organoids [3]; Dose 0.40 uM, ENR+CD, 6 days
  Dose.FC.CTG: 0.103 log 2 fold change
ISC-enriched organoids [3]; Dose 0.40 uM
  Z.CTG: 0.245
ISC-enriched organoids [3]; Dose 2.00 uM, ENR+CD, 6 days
  Dose.FC.CTG: −0.468 log 2 fold change
ISC-enriched organoids [3]; Dose 2.00 uM
  Z.CTG: −1.119
ISC-enriched organoids [3]; Dose 10.00 uM, ENR+CD, 6 days
  Dose.FC.CTG: −1.304 log 2 fold change
ISC-enriched organoids [3]; Dose 10.00 uM
  Z.CTG: −3.116

## CN(C)CCCCC(=O)Nc1ccc(NC(=S)NC(=O)c2ccc(C(C)(C)C)cc2)cc1 [Tenovin-6]
ISC-enriched organoids [1]; dose 0.08 uM
  Z.LYZ.NS (standard z score): 1.050
  Dose.FC.LYZ.NS (log 2 fold change, basal lysozyme secretion): 0.121
ISC-enriched organoids [1]; dose 0.40 uM
  Z.LYZ.NS (standard z score): −0.463
  Dose.FC.LYZ.NS (log 2 fold change, basal lysozyme secretion): −0.053
ISC-enriched organoids [1]; dose 2.00 uM
  Z.LYZ.NS (standard z score): −1.686
  Dose.FC.LYZ.NS (log 2 fold change, basal lysozyme secretion): −0.194
ISC-enriched organoids [1]; dose 10.00 uM
  Z.LYZ.NS (standard z score): −1.671
  Dose.FC.LYZ.NS (log 2 fold change, basal lysozyme secretion): −0.192
ISC-enriched organoids [2]; dose 0.08 uM
  Dose.FC.LYZ.S (log 2 fold change, carbachol-induced lysozyme secretion): 0.028
ISC-enriched organoids [2]; dose 0.40 uM
  Dose.FC.LYZ.S (log 2 fold change, carbachol-induced lysozyme secretion): −0.109
ISC-enriched organoids [2]; dose 2.00 uM
  Dose.FC.LYZ.S (log 2 fold change, carbachol-induced lysozyme secretion): −0.328
ISC-enriched organoids [2]; dose 10.00 uM
  Dose.FC.LYZ.S (log 2 fold change, carbachol-induced lysozyme secretion): −0.344
ISC-enriched organoids [3]; dose 0.08 uM
  Z.CTG (standard z score): 0.165
  Dose.FC.CTG (log 2 fold change, ATP): 0.069
ISC-enriched organoids [3]; dose 0.40 uM
  Z.CTG (standard z score): −1.209
  Dose.FC.CTG (log 2 fold change, ATP): −0.506
ISC-enriched organoids [3]; dose 2.00 uM
  Z.CTG (standard z score): −2.654
  Dose.FC.CTG (log 2 fold change, ATP): −1.111
ISC-enriched organoids [3]; dose 10.00 uM
  Z.CTG (standard z score): −3.414
  Dose.FC.CTG (log 2 fold change, ATP): −1.429

## COc1ccc2cc(-c3nc(-c4ccc([S+](C)[O-])cc4)[nH]c3-c3ccncc3)ccc2c1 (centres unmarked) [Tie2 kinase inhibitor]
ISC-enriched organoids [1]; dose 0.08 uM
  Z.LYZ.NS (standard z score): 0.080
  Dose.FC.LYZ.NS (log 2 fold change, basal lysozyme secretion): 0.009
ISC-enriched organoids [1]; dose 0.40 uM
  Z.LYZ.NS (standard z score): 0.019
  Dose.FC.LYZ.NS (log 2 fold change, basal lysozyme secretion): 0.002
ISC-enriched organoids [1]; dose 2.00 uM
  Z.LYZ.NS (standard z score): 1.577
  Dose.FC.LYZ.NS (log 2 fold change, basal lysozyme secretion): 0.181
ISC-enriched organoids [1]; dose 10.00 uM
  Z.LYZ.NS (standard z score): −0.274
  Dose.FC.LYZ.NS (log 2 fold change, basal lysozyme secretion): −0.031
ISC-enriched organoids [2]; dose 0.08 uM
  Dose.FC.LYZ.S (log 2 fold change, carbachol-induced lysozyme secretion): 0.018
ISC-enriched organoids [2]; dose 0.40 uM
  Dose.FC.LYZ.S (log 2 fold change, carbachol-induced lysozyme secretion): −0.021
ISC-enriched organoids [2]; dose 2.00 uM
  Dose.FC.LYZ.S (log 2 fold change, carbachol-induced lysozyme secretion): 0.024
ISC-enriched organoids [2]; dose 10.00 uM
  Dose.FC.LYZ.S (log 2 fold change, carbachol-induced lysozyme secretion): −0.097
ISC-enriched organoids [3]; dose 0.08 uM
  Z.CTG (standard z score): 0.012
  Dose.FC.CTG (log 2 fold change, ATP): 0.005
ISC-enriched organoids [3]; dose 0.40 uM
  Z.CTG (standard z score): 0.177
  Dose.FC.CTG (log 2 fold change, ATP): 0.074
ISC-enriched organoids [3]; dose 2.00 uM
  Z.CTG (standard z score): −0.750
  Dose.FC.CTG (log 2 fold change, ATP): −0.314
ISC-enriched organoids [3]; dose 10.00 uM
  Z.CTG (standard z score): −1.311
  Dose.FC.CTG (log 2 fold change, ATP): −0.549

## NC(=O)Nc1cc(-c2cccc(F)c2)sc1C(=O)N[C@H]1CCCNC1 [AZD7762]
ISC-enriched organoids [1]; [4]
  Dose.FC.LYZ.NS: 0.010 log 2 fold change
ISC-enriched organoids [1]; primary screen, dose 0.08 uM
  Z.LYZ.NS: 0.084
ISC-enriched organoids [1]; [5]
  Dose.FC.LYZ.NS: −0.159 log 2 fold change
ISC-enriched organoids [1]; primary screen, dose 0.40 uM
  Z.LYZ.NS: −1.385
ISC-enriched organoids [1]; [6]
  Dose.FC.LYZ.NS: −0.211 log 2 fold change
ISC-enriched organoids [1]; primary screen, dose 2.00 uM
  Z.LYZ.NS: −1.835
ISC-enriched organoids [1]; [7]
  Dose.FC.LYZ.NS: −0.220 log 2 fold change
ISC-enriched organoids [1]; primary screen, dose 10.00 uM
  Z.LYZ.NS: −1.917
ISC-enriched organoids [2]; [4]
  Dose.FC.LYZ.S: 0.019 log 2 fold change
ISC-enriched organoids [2]; [5]
  Dose.FC.LYZ.S: −0.251 log 2 fold change
ISC-enriched organoids [2]; [6]
  Dose.FC.LYZ.S: −0.342 log 2 fold change
ISC-enriched organoids [2]; [7]
  Dose.FC.LYZ.S: −0.369 log 2 fold change
ISC-enriched organoids [3]; [4]
  Dose.FC.CTG: 0.054 log 2 fold change
ISC-enriched organoids [3]; primary screen, dose 0.08 uM
  Z.CTG: 0.129
ISC-enriched organoids [3]; [5]
  Dose.FC.CTG: −0.384 log 2 fold change
ISC-enriched organoids [3]; primary screen, dose 0.40 uM
  Z.CTG: −0.917
ISC-enriched organoids [3]; [6]
  Dose.FC.CTG: −0.804 log 2 fold change
ISC-enriched organoids [3]; primary screen, dose 2.00 uM
  Z.CTG: −1.920
ISC-enriched organoids [3]; [7]
  Dose.FC.CTG: −1.361 log 2 fold change
ISC-enriched organoids [3]; primary screen, dose 10.00 uM
  Z.CTG: −3.251
